For three compounds, IC50, inhibition in vivo and Activity results are on record in ChEMBL document CHEMBL5226341, “Discovery of a Potent FLT3 Inhibitor (LT-850-166) with the Capacity of Overcoming a Variety of FLT3 Mutations” (J Med Chem, 2021).

Data set [1] relates to BaF3. As to the kind of experiment: Antiproliferative activity against mouse BaF3 cells harboring FLT3-ITD-N676D mutant assessed as reduction in cell viability measured after 72 hrs by CellTiterGlo luminescent assay. Format: functional, cell-based. The conditions noted are these: BaF3, 72 h.
Data set [2] is described as follows: Antiproliferative activity against mouse BaF3 cells assessed as reduction in cell viability measured after 72 hrs by CellTiterGlo luminescent assay. It is filed as toxicity, cell-based.
In data set [3] the test system is BaF3. In words: Antiproliferative activity against mouse BaF3 cells harboring FLT3-ITD mutant assessed as reduction in cell viability measured after 72 hrs by CellTiterGlo luminescent assay. It is filed as functional, cell-based. The conditions noted are these: BaF3, 72 h.
Data set [4] concerns BaF3. As to the kind of experiment: cells. To be noted: Mus musculus, BaF3, 72 h.
Description: Antiproliferative activity against mouse BaF3 cells harboring FLT3-ITD-D835V mutant assessed as reduction in cell viability measured after 72 hrs by CellTiterGlo luminescent assay
Data set [5] concerns BaF3. In words: Antiproliferative activity against mouse BaF3 cells harboring FLT3-ITD-Y842H mutant assessed as reduction in cell viability measured after 72 hrs by CellTiterGlo luminescent assay. It is filed as functional, cell-based. To be noted: BaF3, 72 h.
The subject of data set [6] is BaF3. It is filed as functional, cell-based. The conditions noted are these: Mus musculus, BaF3, 72 h.
For data set [7], the system named is BaF3. In words: Antiproliferative activity against mouse BaF3 cells harboring FLT3-ITD-F691L mutant assessed as reduction in cell viability incubated for 72 hrs by CellTiterGlo luminescent assay. Format: functional, cell-based. The conditions noted are these: BaF3, 72 h.
Data set [8] relates to MV4-11. As to the kind of experiment: Antitumor activity against human MV4-11 cells xenografted in BALB/c mouse assessed as inhibition rate of tumor weight at 30 mg/kg, iv QD for 21 days by vernier caliper analysis. It is filed as functional. The conditions noted are these: MV4-11, 504 h, time 21 day.
In data set [9] the test system is MV4-11. In words: Antitumor activity against human MV4-11 cells xenografted in BALB/c mouse assessed as tumor growth inhibition at 30 mg/kg, iv QD for 21 days by vernier caliper analysis. Format: functional. The conditions noted are these: MV4-11, 504 h, time 21 day, read-out: TGI.
Data set [10] can be described thus: Toxicity in BALB/c mouse xenografted with human MV4-11 cells assessed as mortality at 30 mg/kg, iv QD for 10 days. To be noted: in vivo, 240 h, time 10 day. Format: organism-based.
The subject of data set [11] is BaF3. In words: Antiproliferative activity against mouse BaF3 cells harboring FLT3-ITD-F691L mutant assessed as residual cell viability at 50 nM incubated for 72 hrs by CellTiterGlo luminescent assay. Format: functional.
The test system of data set [12] is MV4-11. In words: Antiproliferative activity against human MV4-11 cells assessed as inhibition of cell growth incubated for 72 hrs by CellTiterGlo luminescent assay. To be noted: MV4-11, 72 h. It is filed as functional, cell-based.
Data set [13] has as its system BaF3. In words: Antiproliferative activity against mouse BaF3 cells harboring FLT3-ITD-F691L mutant assessed as residual cell viability at 10 nM incubated for 72 hrs by CellTiterGlo luminescent assay. Format: functional.
Data set [14] has as its system BaF3. In words: Antiproliferative activity against mouse BaF3 cells harboring FLT3-ITD-F691L mutant assessed as residual cell viability at 0.1 uM incubated for 72 hrs by CellTiterGlo luminescent assay. It is filed as functional.

Turning to `CC(C)(C)c1cc(NC(=O)Nc2ccc(-c3cn4c(n3)sc3cc(OCCN5CCOCC5)ccc34)cc2)no1` [QUIZARTINIB], the IC50 amounted to 5.41 nM in data set [1]; 3.52 nM in data set [3]; 49.6 nM in data set [4]; 15 nM in data set [5]; 27.1 nM in data set [6]; 133 nM in [7]. Also, in data set [2], the IC50 at 72 h is above 1000 nM.

In the case of `Nc1ccn([C@@H]2O[C@H](CO)[C@@H](O)[C@@H]2O)c(=O)n1` [CYTARABINE], the inhibition in vivo at 30 mg/kg in data set [8] amounted to 50.6%; in [9], 66%. For the same compound, the Activity entry in data set [10] was “Toxic”.

On to `CCN1CCN(c2ccc(C(=O)Nc3cc(-c4ccc5ncn(Cc6ccccc6Cl)c5c4)[nH]n3)cc2)CC1`, for which the Activity is on record as 19.95% in data set [11], 90.16% in data set [13] and 1.72% in [14]. For the same compound, the IC50 in data set [12] came out at 12.4 nM; in data set [7], 29.2 nM.
